These results are taken from patent publication US20160222021A1, “ARYL ETHER-BASE KINASE INHIBITORS” (BRISTOL-MYERS SQUIBB COMPANY, priority 2013, published 2016).

The IC50 is the concentration that inhibits the measured activity by half.

A value given as a limit tells only on which side of the number the result lay.

Experiment [1] concerns the target AAK1 (full length human) in HEK293F cells (Homo sapiens, UniProt Q2M2I8). The experiment in a line: HEK293F Cell-Based Assay (phospho-mu2 Western blot). The conditions noted are these: 3 hours. As for the experimental part:
HEK293F cells were cultured in media containing DMEM (Gibco, cat. #11965), 10% FBS (SAFC Biosciences, cat. #12103C), 1×GPS (glutamine, penicillin and streptomycin). On day one, cells were plated on a 10 cm dish so that they are ˜80% confluent at time of transfection. Roughly 12 million cells were in a 10 cm dish at time of transfection. On day two, each dish was transfected with 48 ug DNA and 144 ul Lipofectamine 2000 (Invitrogen, cat. #11668-019). The DNA was comprised of a mixture (per 10 cm dish) containing 3 ug AAK1/HA/pIRES (full length human, NCBI accession no. NP_055726.2), 45 μg Flag/AP2MI/pcDNA (full length human), and 1.5 ml OPTI-MEM. The Lipofectamine 2000 is made up of a mixture (per 10 cm dish) containing 144 μl Lipofectamine 2000 and 1.5 ml OPTI-MEM. Each mixture was transferred to individual 15 ml tubes and incubated at RT for 5 minutes, and then the two mixes were combined and incubated at RT for 20 minutes. Growth media was then aspirated from each 10 cm plate and replaced with 10 ml of DMEM+10% FBS (no GPS). Finally, 3 ml DNA/Lipofectamine mix was added to each 10 cm dish and mix gently followed by incubate of plate overnight at 37° C. and 5% CO2.
On day three, compounds were diluted in 100% DMSO at 1000× final concentration, followed by 3-fold serial dilutions for a total of 5 concentrations tested. Four compounds were tested per 10 cm dish. One ul of each compound dilution was then pipetted into a deep-well, 96-well plate, followed by addition of 500 μl DMEM+0.5% FBS into each well for a 2× final concentration of each compound. Cells were resuspended in a 10 cm dish by simple pipetting (HEK293 cells come off the plate that easy at this point) and then transferred to a 50 ml conical tube and pelleted by centrifugation at 1000 rpm for 5 min. Cell pellets were then resuspended in 2.75 ml DMEM+0.5% FBS per 10 cm dish and 100 μl of cell suspension transferred into each well of 96-well TC plate. Finally, 100 μl of 2× compound diluted in DMEM+0.5% FBS was then added into wells containing cell suspension for a 1× final concentration. Plates were then incubated at 37° C. and 5% CO2 for 3 hours followed by transferring of cell suspensions from each well into 12-tube PCR strips. The PCR strips were spun in a tip rack at 1000 rpm for 5 minutes to pellet cells and media was then removed by pipetting without disturbing the cell pellet.
To prepare for Western Blot analysis, cell pellets were resuspend in 40 ul 1× LDS-PAGE sample buffer (Invitrogen, cat. # NP0008)+2× Halt phophatase and protease inhibitor cocktail (Thermo Scientific, cat. #1861284), followed by sonicating each with microtip sonicator set at 5 for 8-10 seconds. Five ul of 10× NuPage Sample Reducing Agent (with 50 mM DTT) was to each sample followed by heat denaturing at 70 C for 10 min on PCR machine. A total of 10 μl per sample was loaded into each lane of a 4-20% Tris-Glycine Criterion 26-well gel (Biorad, cat. #345-0034) for the phospho-mu2 blot and 10 μl per lane in a 4-12% Bis-Tris (+MES buffer) NuPAGE 26-well gel (Invitrogen, cat. # WG1403BX10) for the mu2 blot. For controls, 2 ng of phospho-mu2 or 20 ng mu2/Flag proteins were loaded in the last well of each gel. After SDS-PAGE, samples on each gel were transferred to PVDF membrane using an iBlot and membranes were blocked for one hour in TBST+5% milk, followed by wash 3× for 5-10 min with TBST. Criterion gels were probed with rabbit anti-phospho-mu2 (1:5000; a rabbit polyclonal antibody produced by New England Peptide and affinity purified at Lexicon) in TBST+5% BSA, whereas, NuPAGE gels were probed with mouse anti-Flag (1:500; Sigma, cat. # F1804) in TBST+5% milk, and these primary antibodies were incubated overnight at 4° C. on a rocker. […]

Experiment [2] concerns the target T1, GST-Xa-hAAK1 (Homo sapiens, UniProt Q2M2I8).
T1 construct: made in house
The experiment in a line: AAK1 Kinase Assay. The conditions noted are these: ATP 22 μM. The experiment is classed as biochemical. The method, then: The assays were performed in U-bottom 384-well plates. The final assay volume was 30 μl prepared from 15 μl additions of enzyme and substrates (fluoresceinated peptide (5-FAM)-Aha-[…]-NH2 and ATP) and test compounds in assay buffer (10 mM Tris-HCL pH 7.4, 10 mM MgCl2, 0.01% Tween-20 and 1.0 mM DTT). The reactions were initiated by the combination of bacterially expressed, GST-Xa-hAAK1 with substrates and test compounds. The reactions were incubated at room temperature for 3 hours and terminated by adding 60 μl of 35 mM EDTA buffer to each sample. The reactions were analyzed on the Caliper LabChip 3000 (Caliper, Hopkinton, Mass.) by electrophoretic separation of the fluorescent substrate and phosphorylated product. […] The final concentration of reagents in the assays are ATP, 22 μM; (5-FAM)-Aha-[…]-NH2, 1.5 μM; GST-Xa-hAAK1, 3.5 nM; and DMSO, 1.6%. Dose response curves were generated to determine the concentration required inhibiting 50% of kinase activity (IC50). Compounds were dissolved at 10 mM in dimethylsulfoxide (DMSO) and evaluated at eleven concentrations. IC50 values were derived by non-linear regression analysis.

T1 sequence (Q2M2I8 whole entry): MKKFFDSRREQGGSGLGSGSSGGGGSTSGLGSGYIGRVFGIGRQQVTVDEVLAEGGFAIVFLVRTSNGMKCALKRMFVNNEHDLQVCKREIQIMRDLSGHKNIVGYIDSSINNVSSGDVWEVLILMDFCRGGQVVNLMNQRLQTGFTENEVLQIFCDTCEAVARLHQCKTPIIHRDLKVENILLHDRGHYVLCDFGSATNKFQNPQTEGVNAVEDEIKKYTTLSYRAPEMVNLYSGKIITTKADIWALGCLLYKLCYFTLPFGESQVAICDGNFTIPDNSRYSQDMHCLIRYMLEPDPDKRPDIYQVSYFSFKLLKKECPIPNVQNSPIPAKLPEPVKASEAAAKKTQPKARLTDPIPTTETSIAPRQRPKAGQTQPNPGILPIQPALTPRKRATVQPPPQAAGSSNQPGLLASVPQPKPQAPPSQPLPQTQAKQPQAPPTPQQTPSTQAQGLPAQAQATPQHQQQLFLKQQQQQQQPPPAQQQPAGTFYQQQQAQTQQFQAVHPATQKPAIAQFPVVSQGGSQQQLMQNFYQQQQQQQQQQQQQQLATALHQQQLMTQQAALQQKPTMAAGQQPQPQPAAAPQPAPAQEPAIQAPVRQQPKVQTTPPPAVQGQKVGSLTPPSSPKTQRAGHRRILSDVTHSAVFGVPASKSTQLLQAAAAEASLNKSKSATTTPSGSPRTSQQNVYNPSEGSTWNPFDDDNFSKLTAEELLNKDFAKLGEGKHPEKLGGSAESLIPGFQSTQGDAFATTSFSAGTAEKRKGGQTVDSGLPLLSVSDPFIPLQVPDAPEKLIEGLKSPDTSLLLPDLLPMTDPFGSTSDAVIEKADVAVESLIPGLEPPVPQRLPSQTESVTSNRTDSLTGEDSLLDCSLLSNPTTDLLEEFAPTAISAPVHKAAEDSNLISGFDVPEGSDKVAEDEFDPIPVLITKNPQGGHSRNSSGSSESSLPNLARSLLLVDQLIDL
Sequence of AAK1 (full length human) in HEK293F cells (Q2M2I8 1-822 limits assumed): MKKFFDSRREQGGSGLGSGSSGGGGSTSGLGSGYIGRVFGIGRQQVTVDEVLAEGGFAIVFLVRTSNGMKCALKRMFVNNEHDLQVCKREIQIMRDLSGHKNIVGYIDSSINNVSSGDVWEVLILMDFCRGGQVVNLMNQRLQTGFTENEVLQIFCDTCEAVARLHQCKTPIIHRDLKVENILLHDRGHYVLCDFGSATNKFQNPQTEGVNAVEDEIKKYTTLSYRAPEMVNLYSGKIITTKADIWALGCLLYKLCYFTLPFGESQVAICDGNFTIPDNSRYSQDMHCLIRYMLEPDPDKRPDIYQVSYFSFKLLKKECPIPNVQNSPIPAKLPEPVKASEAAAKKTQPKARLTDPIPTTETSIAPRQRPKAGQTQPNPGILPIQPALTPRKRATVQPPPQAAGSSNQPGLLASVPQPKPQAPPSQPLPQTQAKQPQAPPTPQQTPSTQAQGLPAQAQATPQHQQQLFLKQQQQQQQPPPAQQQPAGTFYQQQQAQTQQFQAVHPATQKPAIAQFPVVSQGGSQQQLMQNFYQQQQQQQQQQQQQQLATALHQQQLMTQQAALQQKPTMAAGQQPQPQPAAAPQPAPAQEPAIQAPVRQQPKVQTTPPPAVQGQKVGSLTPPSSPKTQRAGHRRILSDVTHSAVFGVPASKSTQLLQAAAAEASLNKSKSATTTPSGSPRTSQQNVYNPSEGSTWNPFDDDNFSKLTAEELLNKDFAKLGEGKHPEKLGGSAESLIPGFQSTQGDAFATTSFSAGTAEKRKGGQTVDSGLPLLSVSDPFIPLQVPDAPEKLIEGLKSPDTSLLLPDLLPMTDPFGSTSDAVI

Regarding `COC(=O)Nc1cc2c(cn1)COc1cc(OCC(C)(N)CC(C)C)ccc1-2` (racemic) [Example 60, methyl (8-((2-amino-2,4-dimethylpentyl)oxy)-5H-chromeno[3,4-c]pyridin-2-yl)carbamate], the concentration for half-maximal inhibition (IC50) in experiment [1] (IC50 ranges) and in experiment [2] (IC50 ranges) was 0.001 to 0.01 µM each time.

For `CC(=O)Nc1cc2c(cn1)COc1c-2ccc(OCC(C)(N)CC(C)C)c1OC(F)F` (racemic) [Example 65, N-(8-((2-amino-2,4-dimethylpentyl)oxy)-7-(difluoromethoxy)-5H-chromeno[3,4-c]pyridin-2-yl)acetamide], the half-maximal inhibitory concentration (IC50) in experiment [1] (IC50 ranges) and in experiment [2] (IC50 ranges) was < 0.001 µM in each case. On to `COc1c(OCC(C)(N)CC(C)C)ccc2c1OCc1cnc(NC(C)=O)cc1-2` (racemic) [Example 66, N-(8-((2-amino-2,4-dimethylpentyl)oxy)-7-methoxy-5H-chromeno[3,4-c]pyridin-2-yl)acetamide], for which the IC50 in experiment [1] (IC50 ranges) is 0.001 to 0.01 µM; in experiment [2] (IC50 ranges), < 0.001 µM. Regarding `COC(=O)Nc1cc2c(cn1)COc1c-2ccc(OCC(C)(N)CC(C)C)c1OC(F)F` (racemic) [Example 76, methyl (8-((2-amino-2,4-dimethylpentyl)oxy)-7-(difluoromethoxy)-5H-chromeno[3,4-c]pyridin-2-yl)carbamate], the half-inhibitory concentration (IC50) in experiment [1] (IC50 ranges) was 0.001 to 0.01 µM; in experiment [2] (IC50 ranges) it was < 0.001 µM.

For `CC(C)C[C@H](N)COc1cc2c(cc1Cl)-c1ccncc1[C@@H](C(F)(F)F)O2` (single isomer, unassigned) [Example 27b], the IC50 in experiment [1] (IC50 ranges) and in experiment [2] (IC50 ranges) was 0.001 to 0.01 µM throughout. Consider `CC(C)C[C@H](N)COc1ccc2c(c1)OC(C(F)(F)F)c1cnccc1-2` (single isomer, unassigned; diastereomer 1) [Example 52], for which the IC50 in experiment [1] (IC50 ranges) and in experiment [2] (IC50 ranges) was 0.01 to 0.1 µM throughout. On to `CC1Oc2cc(OCC(N)CC(C)(C)F)ccc2-c2ccncc21` (centres unmarked) [Example 26, 4-fluoro-4-methyl-1-(5-methyl-5H-chromeno[3,4-c]pyridin-8-yloxy)pentan-2-amine], for which the IC50 in experiment [1] (IC50 ranges) was in the range of 0.01 to 0.1 µM; in experiment [2] (IC50 ranges) it was 0.001 to 0.01 µM. The matching figures for `CC(=O)Nc1cc2c(cn1)COc1cc(OC[C@](C)(N)CC(C)C)ccc1-2` [Example 46, (R)—N-(8-((2-amino-2,4-dimethylpentyl)oxy)-5H-chromeno[3,4-c]pyridin-2-yl)acetamide]: 0.001 to 0.01 µM and 0.001 to 0.01 µM. On the same counts, the results for `CC1Oc2cc(OCC(N)CCC(F)(F)F)ccc2-c2ccncc21` (centres unmarked) [Example 57, 5,5,5-trifluoro-1-((5-methyl-5H-chromeno[3,4-c]pyridin-8-yl)oxy)pentan-2-amine] are 0.01 to 0.1 µM and 0.001 to 0.01 µM. As to `CC(=O)Nc1cc2c(cn1)COc1c-2ccc(OC[C@@H](N)CC(C)C)c1OC(F)F` [Example 59, (S)—N-(8-((2-amino-4-methylpentyl)oxy)-7-(difluoromethoxy)-5H-chromeno[3,4-c]pyridin-2-yl)acetamide], the IC50 in experiment [1] (IC50 ranges) was < 0.001 µM; in experiment [2] (IC50 ranges), 0.001 to 0.01 µM. On to `CC(=O)Nc1cc2c(cn1)COc1c-2ccc(OC[C@@H](N)CC(C)C)c1Cl` [Example 63, (S)—N-(8-((2-amino-4-methylpentyl)oxy)-7-chloro-5H-chromeno[3,4-c]pyridin-2-yl)acetamide], for which the IC50 in experiment [1] (IC50 ranges) and in experiment [2] (IC50 ranges) was < 0.001 µM each time. As for `CC(C)C[C@H](N)COc1ccc2c(c1)OCc1cnc(NC(=O)OC(C)C)cc1-2` [Example 64, (S)-isopropyl (8-((2-amino-4-methylpentyl)oxy)-5H-chromeno[3,4-c]pyridin-2-yl)carbamate], the IC50 in experiment [1] (numeric values) came to 0.015 µM; in experiment [2] (numeric values), 0.0052 µM.

For the compound `COC(=O)Nc1cc2c(cn1)COc1cc(OCC(C)(N)CC(C)C)ccc1-2` (centres unmarked) [Example 67, methyl (8-((2-amino-2,4-dimethylpentyl)oxy)-5H-chromeno[3,4-c]pyridin-2-yl)carbamate], the IC50 in experiment [1] (IC50 ranges) lay in the range of 0.01 to 0.1 µM; in experiment [2] (IC50 ranges), 0.001 to 0.01 µM. In turn, `COC(=O)Nc1cc2c(cn1)COc1cc(OCC(C)(N)CC(C)C)ccc1-2` (centres unmarked) [Example 70, methyl (8-((2-amino-2,4-dimethylpentyl)oxy)-5H-chromeno[3,4-c]pyridin-2-yl)carbamate] returned a half-maximal inhibitory concentration (IC50) in experiment [1] (IC50 ranges) of 0.001 to 0.01 µM. `CCC(=O)Nc1cc2c(cn1)COc1cc(OC[C@@H](N)CC(C)C)ccc1-2` [Example 73, (S)—N-(8-((2-amino-4-methylpentyl)oxy)-5H-chromeno[3,4-c]pyridin-2-yl)propionamide]: the IC50 was in the range of 0.01 to 0.1 µM in experiment [1] (IC50 ranges) and 0.001 to 0.01 µM in experiment [2] (IC50 ranges). Regarding `COC(=O)Nc1cc2c(cn1)COc1c-2ccc(OC[C@@H](N)CC(C)C)c1Cl` [Example 74, (S)-methyl (8-((2-amino-4-methylpentyl)oxy)-7-chloro-5H-chromeno[3,4-c]pyridin-2-yl)carbamate], the IC50 in experiment [1] (IC50 ranges) was < 0.001 µM; in experiment [2] (IC50 ranges), 0.001 to 0.01 µM.

Turning to `CCOC(=O)Nc1cc2c(cn1)COc1cc(OC[C@@H](N)CC(C)C)ccc1-2` [Example 77, (S)-ethyl (8-((2-amino-4-methylpentyl)oxy)-5H-chromeno[3,4-c]pyridin-2-yl)carbamate], the IC50 in experiment [1] (IC50 ranges) and in experiment [2] (IC50 ranges) was 0.001 to 0.01 µM throughout. On to `CCOC(=O)Nc1cc2c(cn1)COc1cc(OC[C@@](C)(N)CC(C)C)ccc1-2` [Example 81, (S)-ethyl (8-((2-amino-2,4-dimethylpentyl)oxy)-5H-chromeno[3,4-c]pyridin-2-yl)carbamate], for which the IC50 in experiment [1] (IC50 ranges) and in experiment [2] (IC50 ranges) was < 0.001 µM in each case. Take `COC(=O)Nc1ncc2c(c1Cl)-c1cc(Cl)c(OC[C@@](C)(N)CC(C)C)cc1OC2` [Example 82, (S)-methyl (8-((2-amino-2,4-dimethylpentyl)oxy)-1,9-dichloro-5H-chromeno[3,4-c]pyridin-2-yl)carbamate]: the concentration for half-maximal inhibition (IC50) in experiment [1] (IC50 ranges) and in experiment [2] (IC50 ranges) was 0.001 to 0.01 µM in each case. For `Cc1cc2c(cn1)c(=O)oc1cc(OC[C@@](C)(N)CC(C)C)c(Cl)cc12` [Example 103, (S)-8-((2-amino-2,4-dimethylpentyl)oxy)-9-chloro-2-methyl-5H-chromeno[3,4-c]pyridin-5-one], the IC50 in experiment [2] (IC50 ranges) was in the range of 0.1 to 1.2 µM.
